“Also recorded” adds a separate entry of the source.
Test system: 504 cancer cell lines
Test: Drug sensitivity (IC50 index) of cancer cell lines with versus without a mutation in a module, compared by T-test
Assay type: cell-based
Settings: for T-Statistic, sensitivity to drug vs mutation in module: T-test of IC50 scores, cell lines with vs without mutation
Excerpt: An inference engine can be used to identify an association between drug sensitivity of a sample and module activity or mutation status. For example, by using a statistical test to compare the IC 50 indexes or other measures of drug sensitivity known to those skilled in the art, for two or more classes of samples determined by the presence or absence of a mutation within a module of interest or determined by a module feature (e.g. high or low activity). A statistical test, such as, for example, a T-test or Wilcoxon test or another test known to those skilled in the art can be used to compare the IC50 scores across two sets of samples. By way of example and not of limitation, an ANOVA analysis can be used to compare such scores over two or more classes of samples.
Change in drug sensitivity conditional on sample class determined by module activity or mutation status can be computed, for example, by using a statistical test by comparing, for example, the IC 50 indexes or other measures of drug sensitivity known to those skilled in the art, for two or more classes of samples. A statistical test, such as, for example, a T-test or Wilcoxon test or another test known to those skilled in the art can be used to compare the IC50 scores across two sets of samples. By way of example and not of limitation, an ANOVA analysis can be used to compare such scores over two or more classes of samples.
The Broad GDAC Firehose provides publicly-available preprocessed TCGA level 3 data and level 4 analyses packaged in a form amenable to immediate algorithmic intake (Marx, V. et al. Nat. Methods 10, 293-297 (2013); incorporated by reference in its entirety). From this resource gene mutations were obtained, copy-number variants and mRNA expression levels (microarray and RNAseq) for human subjects as well as selected clinical data such as overall patient survival and the list of administered oncology drugs for each patient were also obtained. Molecular data (including somatic mutations) as well as drug sensitivity data for 504 cancer cell lines were obtained, deposited and made publicly available by the Sage Bionetworks Synapse platform (Friend, S. et al. Cancer Discov. 2, 658 (2012); hereby incorporated by reference in its entirety).
A multidimensional multiscale map was generated where module colors indicate the change in drug sensitivity depending on the mutation status of a given module (i.e. module can contain a mutation in one of the genes or not) [FIG. 11]. The change is computed by comparing drug sensitivity for samples with or without mutations within genes belonging to a module. Drug sensitivity was measured by the IC 50 index (Soothill, J. S. et al. J. Antimicrob. Chemother. 29, 137-139 (1992); hereby incorporated by reference in its entirety). A T-test was used to compare the IC50 scores across two sets of samples. […] Cell lines with a relevant mutation are indicated as “1” in the boxplot and tend to have lower IC 50 values indicating higher sensitivity to AZD6244.

[1] = mutations in genes of module 16157
[2] = mutations in genes of module 16873
[3] = mutations in genes of module 17552
[4] = mutations in genes of module 17611

| SMILES | change in drug sensitivity with module mutation (module number 17454 as printed, FIG. 11) | T-Statistic, sensitivity to drug vs mutation in module (mutation in module 16157) | T-Statistic, sensitivity to drug vs mutation in module (mutation in module 16873) | T-Statistic, sensitivity to drug vs mutation in module (mutation in module 17552) | T-Statistic, sensitivity to drug vs mutation in module (mutation in module 17611) | change in drug sensitivity with module mutation [1] | change in drug sensitivity with module mutation [2] | change in drug sensitivity with module mutation [3] | change in drug sensitivity with module mutation [4] |
| --- | --- | --- | --- | --- | --- | --- | --- | --- | --- |
| Cn1cnc2c(F)c(Nc3ccc(Br)cc3Cl)c(C(=O)NOCCO)cc21 [AZD6244] | increased sensitivity | −6.876 | −9.937 | −8.56 | −7.071 | more sensitive | more sensitive | increased sensitivity; also recorded: more sensitive | more sensitive |
| O=C(NOC[C@H](O)CO)c1ccc(F)c(F)c1Nc1ccc(I)cc1F [PD.0325901] | – | −6.692 | −10.52 | −8.774 | −7.111 | more sensitive | more sensitive | more sensitive | more sensitive |
